Columns and labels:
ERBB3 = target: T1, ERBB3 (Homo sapiens, UniProt P21860); test: KinomeScan; type: binding; details: 1uM
T1 construct: purchased DiscoveRx KINOMEscan

PRKCH = target: T2, PRKCH (Homo sapiens, UniProt P24723); test: KinomeScan; type: binding; details: 1uM
T2 construct: purchased DiscoveRx KINOMEscan

PARP cleavage = test: Apoptosis (western-blot); type: cell-based, human; details: within 12 hours
Source text: Then, apoptosis of MOLM13, HT, MEC-1 cells were detected by western-blot using PARP, GAPDH antibody (CST).

NDR1 = target: T3, NDR1 (Homo sapiens, UniProt Q15208); test: KinomeScan; type: binding; details: 1uM
T3 construct: purchased DiscoveRx KINOMEscan

[1] = target: T4, RSK1(Kin.Dom.2-C-terminal) (Homo sapiens, UniProt Q15418); test: KinomeScan; type: binding; details: 1uM
T4 construct: RSK1(Kin.Dom.2-C-terminal); purchased DiscoveRx KINOMEscan

PAK3 = target: T5, PAK3 (Homo sapiens, UniProt O75914); test: KinomeScan; type: binding; details: 1uM
T5 construct: purchased DiscoveRx KINOMEscan
T5 sequence (O75914 whole entry): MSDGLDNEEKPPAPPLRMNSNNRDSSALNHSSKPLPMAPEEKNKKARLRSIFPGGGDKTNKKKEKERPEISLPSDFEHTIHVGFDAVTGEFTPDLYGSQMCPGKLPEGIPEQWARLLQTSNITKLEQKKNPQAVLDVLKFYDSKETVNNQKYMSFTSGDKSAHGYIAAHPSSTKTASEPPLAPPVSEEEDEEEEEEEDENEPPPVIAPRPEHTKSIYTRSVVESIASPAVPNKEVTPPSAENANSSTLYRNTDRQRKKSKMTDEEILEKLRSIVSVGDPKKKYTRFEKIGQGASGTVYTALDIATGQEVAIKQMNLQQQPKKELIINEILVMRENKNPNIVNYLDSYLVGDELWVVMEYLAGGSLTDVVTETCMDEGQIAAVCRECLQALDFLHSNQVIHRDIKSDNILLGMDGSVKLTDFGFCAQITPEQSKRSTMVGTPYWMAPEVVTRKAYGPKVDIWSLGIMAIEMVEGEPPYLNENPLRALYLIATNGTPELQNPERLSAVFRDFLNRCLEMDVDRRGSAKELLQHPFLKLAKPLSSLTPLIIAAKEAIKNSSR

ULK3 = target: T6, ULK3 (Homo sapiens, UniProt Q6PHR2); test: KinomeScan; type: binding; details: 1uM
T6 construct: purchased DiscoveRx KINOMEscan

ASK2 = target: T7, ASK2 (Homo sapiens, UniProt O95382); test: KinomeScan; type: binding; details: 1uM
T7 construct: purchased DiscoveRx KINOMEscan

PKN2 = target: T8, PKN2 (Homo sapiens, UniProt Q16513); test: KinomeScan; type: binding; details: 1uM
T8 construct: purchased DiscoveRx KINOMEscan

ACVR2A = target: T9, ACVR2A (Homo sapiens, UniProt P27037); test: KinomeScan; type: binding; details: 1uM
T9 construct: purchased DiscoveRx KINOMEscan

ROCK2 = target: T10, ROCK2 (Homo sapiens, UniProt O75116); test: KinomeScan; type: binding; details: 1uM
T10 construct: purchased DiscoveRx KINOMEscan
T10 sequence (O75116 whole entry): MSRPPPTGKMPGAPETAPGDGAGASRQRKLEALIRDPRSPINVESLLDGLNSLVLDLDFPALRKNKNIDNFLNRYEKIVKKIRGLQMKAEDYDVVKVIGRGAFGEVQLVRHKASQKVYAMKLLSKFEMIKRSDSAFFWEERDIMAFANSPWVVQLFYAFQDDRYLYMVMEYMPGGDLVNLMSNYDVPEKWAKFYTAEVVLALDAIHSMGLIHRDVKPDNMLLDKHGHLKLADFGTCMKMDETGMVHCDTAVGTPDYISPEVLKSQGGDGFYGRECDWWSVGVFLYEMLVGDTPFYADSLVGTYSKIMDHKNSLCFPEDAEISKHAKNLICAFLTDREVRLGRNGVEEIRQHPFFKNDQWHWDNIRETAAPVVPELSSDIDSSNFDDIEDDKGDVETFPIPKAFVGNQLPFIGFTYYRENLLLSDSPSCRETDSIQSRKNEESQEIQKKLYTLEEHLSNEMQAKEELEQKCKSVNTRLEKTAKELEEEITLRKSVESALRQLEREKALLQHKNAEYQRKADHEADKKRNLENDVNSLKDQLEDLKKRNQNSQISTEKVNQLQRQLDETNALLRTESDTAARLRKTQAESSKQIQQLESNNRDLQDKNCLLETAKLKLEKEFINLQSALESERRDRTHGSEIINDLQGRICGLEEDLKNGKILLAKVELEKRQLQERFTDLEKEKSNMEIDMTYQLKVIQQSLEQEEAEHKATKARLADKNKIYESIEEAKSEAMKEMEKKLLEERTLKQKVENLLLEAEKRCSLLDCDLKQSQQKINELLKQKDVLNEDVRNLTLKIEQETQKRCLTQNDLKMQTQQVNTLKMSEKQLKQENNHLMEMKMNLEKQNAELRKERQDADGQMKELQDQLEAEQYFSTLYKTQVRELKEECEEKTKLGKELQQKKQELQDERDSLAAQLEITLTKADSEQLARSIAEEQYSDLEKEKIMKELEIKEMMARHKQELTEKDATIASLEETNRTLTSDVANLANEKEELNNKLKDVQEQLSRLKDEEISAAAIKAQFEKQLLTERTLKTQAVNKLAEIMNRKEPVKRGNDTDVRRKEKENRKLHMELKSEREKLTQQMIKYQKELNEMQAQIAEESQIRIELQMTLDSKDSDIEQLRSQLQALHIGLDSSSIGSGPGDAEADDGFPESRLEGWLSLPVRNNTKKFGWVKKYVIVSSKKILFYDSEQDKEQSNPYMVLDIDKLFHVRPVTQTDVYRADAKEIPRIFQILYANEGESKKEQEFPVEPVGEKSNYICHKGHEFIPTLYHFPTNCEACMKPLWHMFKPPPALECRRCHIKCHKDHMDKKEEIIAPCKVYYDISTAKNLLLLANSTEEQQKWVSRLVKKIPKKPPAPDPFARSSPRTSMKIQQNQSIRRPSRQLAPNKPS

TAOK3 = target: T11, TAOK3 (Homo sapiens, UniProt Q9H2K8); test: KinomeScan; type: binding; details: 1uM
T11 construct: purchased DiscoveRx KINOMEscan

PIM3 = target: T12, PIM3 (Homo sapiens, UniProt Q86V86); test: KinomeScan; type: binding; details: 1uM
T12 construct: purchased DiscoveRx KINOMEscan

CDK9 = target: T13, CDK9 (Homo sapiens, UniProt P50750); test: KinomeScan; type: binding; details: 1uM
T13 construct: purchased DiscoveRx KINOMEscan

PRKCI = target: T14, PRKCI (Homo sapiens, UniProt P41743); test: KinomeScan; type: binding; details: 1uM
T14 construct: purchased DiscoveRx KINOMEscan

[2] = target: T15, RSK1(Kin.Dom.1-N-terminal) (Homo sapiens, UniProt Q15418); test: KinomeScan; type: binding; details: 1uM
T15 construct: RSK1(Kin.Dom.1-N-terminal); purchased DiscoveRx KINOMEscan

GSK3A = target: T16, GSK3A (Homo sapiens, UniProt P49840); test: KinomeScan; type: binding; details: 1uM
T16 construct: purchased DiscoveRx KINOMEscan

BMPR2 = target: T17, BMPR2 (Homo sapiens, UniProt Q13873); test: KinomeScan; type: binding; details: 1uM
T17 construct: purchased DiscoveRx KINOMEscan

TNK1 = target: T18, TNK1 (Homo sapiens, UniProt Q13470); test: KinomeScan; type: binding; details: 1uM
T18 construct: purchased DiscoveRx KINOMEscan

ABL2 = target: T19, ABL2 (Homo sapiens, UniProt P42684); test: KinomeScan; type: binding; details: 1uM
T19 construct: purchased DiscoveRx KINOMEscan

FLT3(D835Y) = target: T20, FLT3(D835Y) (Homo sapiens, UniProt P36888, D835Y); test: KinomeScan; type: binding; details: 1uM
T20 construct: purchased DiscoveRx KINOMEscan

ABL1-nonphosphorylated = target: T21, ABL1-nonphosphorylated (Homo sapiens, UniProt P00519); test: KinomeScan; type: binding; details: 1uM
T21 construct: purchased DiscoveRx KINOMEscan

CSF1R = target: T22, CSF1R (Homo sapiens, UniProt P07333); test: KinomeScan; type: binding; details: 1uM
T22 construct: purchased DiscoveRx KINOMEscan

RET(M918T) = target: T23, RET(M918T) (Homo sapiens, UniProt P07949, M918T); test: KinomeScan; type: binding; details: 1uM
T23 construct: purchased DiscoveRx KINOMEscan

MEK1 = target: T24, MEK1 (Homo sapiens, UniProt Q02750); test: KinomeScan; type: binding; details: 1uM
T24 construct: purchased DiscoveRx KINOMEscan

TAOK2 = target: T25, TAOK2 (Homo sapiens, UniProt Q9UL54); test: KinomeScan; type: binding; details: 1uM
T25 construct: purchased DiscoveRx KINOMEscan

NEK2 = target: T26, NEK2 (Homo sapiens, UniProt P51955); test: KinomeScan; type: binding; details: 1uM
T26 construct: purchased DiscoveRx KINOMEscan

ANKK1 = target: T27, ANKK1 (Homo sapiens, UniProt Q8NFD2); test: KinomeScan; type: binding; details: 1uM
T27 construct: purchased DiscoveRx KINOMEscan
T27 sequence (Q8NFD2 whole entry): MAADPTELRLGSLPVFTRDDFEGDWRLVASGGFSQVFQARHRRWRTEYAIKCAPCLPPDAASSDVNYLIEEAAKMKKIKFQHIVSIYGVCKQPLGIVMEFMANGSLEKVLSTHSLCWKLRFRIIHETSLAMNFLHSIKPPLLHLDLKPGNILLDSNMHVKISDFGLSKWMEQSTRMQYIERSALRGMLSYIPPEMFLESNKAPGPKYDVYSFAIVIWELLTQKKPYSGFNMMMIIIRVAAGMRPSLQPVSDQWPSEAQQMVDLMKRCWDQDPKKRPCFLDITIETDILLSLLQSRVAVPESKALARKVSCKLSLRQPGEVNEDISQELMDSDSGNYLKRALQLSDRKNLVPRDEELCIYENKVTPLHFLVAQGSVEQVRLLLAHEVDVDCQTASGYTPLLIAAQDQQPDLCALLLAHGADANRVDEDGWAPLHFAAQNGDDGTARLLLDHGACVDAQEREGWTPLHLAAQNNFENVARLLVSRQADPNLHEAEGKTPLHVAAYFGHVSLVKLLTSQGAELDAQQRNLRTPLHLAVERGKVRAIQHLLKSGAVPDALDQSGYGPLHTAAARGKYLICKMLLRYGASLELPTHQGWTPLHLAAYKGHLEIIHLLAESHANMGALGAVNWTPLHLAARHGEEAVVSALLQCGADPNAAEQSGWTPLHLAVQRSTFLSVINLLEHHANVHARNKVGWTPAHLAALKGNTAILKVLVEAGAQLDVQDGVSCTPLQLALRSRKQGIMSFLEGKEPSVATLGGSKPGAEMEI

PRP4 = target: T28, PRP4 (Homo sapiens, UniProt Q13523); test: KinomeScan; type: binding; details: 1uM
T28 construct: purchased DiscoveRx KINOMEscan

CDK4-cyclinD3 = target: T29, CDK4-cyclinD3 (Homo sapiens, UniProt P11802); test: KinomeScan; type: binding; details: 1uM
T29 construct: purchased DiscoveRx KINOMEscan

DAPK1 = target: T30, DAPK1 (Homo sapiens, UniProt P53355); test: KinomeScan; type: binding; details: 1uM
T30 construct: purchased DiscoveRx KINOMEscan

LIMK2 = target: T31, LIMK2 (Homo sapiens, UniProt P53671); test: KinomeScan; type: binding; details: 1uM
T31 construct: purchased DiscoveRx KINOMEscan

DDR1 = target: T32, DDR1 (Homo sapiens, UniProt Q08345); test: KinomeScan; type: binding; details: 1uM
T32 construct: purchased DiscoveRx KINOMEscan
T32 sequence (Q08345 19-913): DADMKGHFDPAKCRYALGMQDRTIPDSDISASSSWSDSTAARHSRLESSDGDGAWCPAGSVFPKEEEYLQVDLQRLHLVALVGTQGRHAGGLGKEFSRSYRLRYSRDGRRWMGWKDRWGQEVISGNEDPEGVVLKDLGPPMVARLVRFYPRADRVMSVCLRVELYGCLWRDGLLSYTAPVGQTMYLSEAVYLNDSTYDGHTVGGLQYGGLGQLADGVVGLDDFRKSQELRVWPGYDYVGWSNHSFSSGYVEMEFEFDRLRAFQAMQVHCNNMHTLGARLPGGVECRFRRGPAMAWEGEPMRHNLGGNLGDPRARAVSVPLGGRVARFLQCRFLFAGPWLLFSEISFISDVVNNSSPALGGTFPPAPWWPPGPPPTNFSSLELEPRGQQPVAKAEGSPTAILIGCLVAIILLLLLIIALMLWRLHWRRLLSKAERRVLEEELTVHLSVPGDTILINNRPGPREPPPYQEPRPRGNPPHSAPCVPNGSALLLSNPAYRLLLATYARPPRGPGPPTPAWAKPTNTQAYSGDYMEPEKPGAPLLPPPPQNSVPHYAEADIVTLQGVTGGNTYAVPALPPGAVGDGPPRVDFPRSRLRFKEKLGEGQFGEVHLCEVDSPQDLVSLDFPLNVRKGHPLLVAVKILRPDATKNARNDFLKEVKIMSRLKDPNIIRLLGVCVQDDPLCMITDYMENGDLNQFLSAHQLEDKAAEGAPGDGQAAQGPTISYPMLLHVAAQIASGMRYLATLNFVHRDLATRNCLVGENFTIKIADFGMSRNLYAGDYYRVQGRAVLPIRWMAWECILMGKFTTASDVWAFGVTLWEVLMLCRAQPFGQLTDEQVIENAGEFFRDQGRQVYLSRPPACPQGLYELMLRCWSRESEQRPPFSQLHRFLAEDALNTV

PLK3 = target: T33, PLK3 (Homo sapiens, UniProt Q9H4B4); test: KinomeScan; type: binding; details: 1uM
T33 construct: purchased DiscoveRx KINOMEscan
T33 sequence (Q9H4B4 whole entry): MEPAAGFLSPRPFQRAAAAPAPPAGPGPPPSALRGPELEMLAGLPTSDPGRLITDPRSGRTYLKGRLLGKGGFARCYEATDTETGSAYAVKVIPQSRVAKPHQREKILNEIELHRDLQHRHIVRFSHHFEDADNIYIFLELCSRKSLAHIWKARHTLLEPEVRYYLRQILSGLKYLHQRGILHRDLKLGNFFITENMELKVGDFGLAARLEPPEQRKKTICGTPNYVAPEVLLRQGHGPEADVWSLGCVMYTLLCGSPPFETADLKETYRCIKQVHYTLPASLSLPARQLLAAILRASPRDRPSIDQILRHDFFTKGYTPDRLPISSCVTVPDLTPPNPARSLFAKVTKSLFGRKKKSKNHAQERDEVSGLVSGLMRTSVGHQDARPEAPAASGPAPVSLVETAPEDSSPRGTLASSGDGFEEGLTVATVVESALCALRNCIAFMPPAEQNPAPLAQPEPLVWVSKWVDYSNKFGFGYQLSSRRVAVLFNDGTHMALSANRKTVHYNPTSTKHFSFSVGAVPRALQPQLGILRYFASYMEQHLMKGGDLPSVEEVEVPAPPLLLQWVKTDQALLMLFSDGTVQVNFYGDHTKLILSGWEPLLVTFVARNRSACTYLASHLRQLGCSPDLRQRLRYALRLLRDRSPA

PIK3CD = target: T34, PIK3CD (Homo sapiens, UniProt O00329); test: KinomeScan; type: binding; details: 1uM
T34 construct: purchased DiscoveRx KINOMEscan

ACVRL1 = target: T35, ACVRL1 (Homo sapiens, UniProt P37023); test: KinomeScan; type: binding; details: 1uM
T35 construct: purchased DiscoveRx KINOMEscan

SGK3 = target: T36, SGK3 (Homo sapiens, UniProt Q96BR1); test: KinomeScan; type: binding; details: 1uM
T36 construct: purchased DiscoveRx KINOMEscan

AURKA = target: T37, AURKA (Homo sapiens, UniProt O14965); test: KinomeScan; type: binding; details: 1uM
T37 construct: purchased DiscoveRx KINOMEscan
T37 sequence (O14965 whole entry): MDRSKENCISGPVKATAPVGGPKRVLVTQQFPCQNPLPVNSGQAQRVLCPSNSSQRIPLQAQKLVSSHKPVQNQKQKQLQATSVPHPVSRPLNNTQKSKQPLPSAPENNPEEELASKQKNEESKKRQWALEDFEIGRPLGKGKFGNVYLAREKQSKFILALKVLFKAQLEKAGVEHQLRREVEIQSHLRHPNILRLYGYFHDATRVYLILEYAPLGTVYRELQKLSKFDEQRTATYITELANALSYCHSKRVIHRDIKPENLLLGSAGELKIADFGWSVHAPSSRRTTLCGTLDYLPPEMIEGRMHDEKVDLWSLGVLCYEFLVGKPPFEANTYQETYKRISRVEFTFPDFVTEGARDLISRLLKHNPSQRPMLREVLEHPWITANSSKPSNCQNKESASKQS

EGFR(T790M) = target: T38, EGFR(T790M) (Homo sapiens, UniProt P00533, T790M); test: KinomeScan; type: binding; details: 1uM
T38 construct: purchased DiscoveRx KINOMEscan

[3] = target: T39, TYK2(JH2domain-pseudokinase) (Homo sapiens, UniProt P29597); test: KinomeScan; type: binding; details: 1uM
T39 construct: TYK2(JH2domain-pseudokinase); purchased DiscoveRx KINOMEscan
T39 sequence (P29597 556-888 limits assumed): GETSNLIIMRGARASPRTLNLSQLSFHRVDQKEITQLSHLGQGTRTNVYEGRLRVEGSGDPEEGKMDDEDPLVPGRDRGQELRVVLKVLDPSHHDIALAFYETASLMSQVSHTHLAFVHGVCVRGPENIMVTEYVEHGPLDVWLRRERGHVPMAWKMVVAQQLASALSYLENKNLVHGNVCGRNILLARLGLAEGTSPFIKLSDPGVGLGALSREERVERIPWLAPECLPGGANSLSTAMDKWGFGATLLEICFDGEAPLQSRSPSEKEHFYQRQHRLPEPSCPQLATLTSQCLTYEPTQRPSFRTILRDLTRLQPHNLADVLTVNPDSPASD

IRAK1 = target: T40, IRAK1 (Homo sapiens, UniProt P51617); test: KinomeScan; type: binding; details: 1uM
T40 construct: purchased DiscoveRx KINOMEscan

LOK = target: T41, LOK (Homo sapiens, UniProt O94804); test: KinomeScan; type: binding; details: 1uM
T41 construct: purchased DiscoveRx KINOMEscan

Cc1nc(NC(=O)[C@@H](N)C(C)C)sc1-c1cnc(Cl)c(NS(=O)(=O)c2ccccc2)c1 [PI3KD-IN-015]
KinomeScan ERBB3 (ERBB3): 100
KinomeScan PRKCH (PRKCH): 100
PARP cleavage (apoptosis) (PARP cleavage; MEC-1 cell (CLL)): only weakly
PARP cleavage (apoptosis) (PARP cleavage; MOLM-13 cell (AML), HT cell (B-NHL)): apparent PARP cleavage
KinomeScan NDR1 (NDR1): 100
KinomeScan RSK1(Kin.Dom.2-C-terminal) [1]: 96
KinomeScan PAK3 (PAK3): 92
KinomeScan ULK3 (ULK3): 88
KinomeScan ASK2 (ASK2): 84
KinomeScan PKN2 (PKN2): 100
KinomeScan ACVR2A (ACVR2A): 100
KinomeScan ROCK2 (ROCK2): 85
KinomeScan TAOK3 (TAOK3): 93
KinomeScan PIM3 (PIM3): 100
KinomeScan CDK9 (CDK9): 100
KinomeScan PRKCI (PRKCI): 100
KinomeScan RSK1(Kin.Dom.1-N-terminal) [2]: 74
KinomeScan GSK3A (GSK3A): 95
KinomeScan BMPR2 (BMPR2): 96
KinomeScan TNK1 (TNK1): 100
KinomeScan ABL2 (ABL2): 99
KinomeScan FLT3(D835Y) (FLT3(D835Y)): 98
KinomeScan ABL1-nonphosphorylated (ABL1-nonphosphorylated): 100
KinomeScan CSF1R (CSF1R): 67
KinomeScan RET(M918T) (RET(M918T)): 95
KinomeScan MEK1 (MEK1): 100
KinomeScan TAOK2 (TAOK2): 96
KinomeScan NEK2 (NEK2): 100
KinomeScan ANKK1 (ANKK1): 100
KinomeScan PRP4 (PRP4): 93
KinomeScan CDK4-cyclinD3 (CDK4-cyclinD3): 100
KinomeScan DAPK1 (DAPK1): 98
KinomeScan LIMK2 (LIMK2): 100
KinomeScan DDR1 (DDR1): 100
KinomeScan PLK3 (PLK3): 76
KinomeScan PIK3CD (PIK3CD): 0
KinomeScan ACVRL1 (ACVRL1): 100
KinomeScan SGK3 (SGK3): 91
KinomeScan AURKA (AURKA): 93
KinomeScan EGFR(T790M) (EGFR(T790M)): 70
KinomeScan TYK2(JH2domain-pseudokinase) [3]: 100
KinomeScan IRAK1 (IRAK1): 60
KinomeScan LOK (LOK): 99

— publication PMC5078040 (Oncotarget, 2016)
